Test results reported in PubChem BioAssay AID1549 (Sanford-Burnham Center for Chemical Genomics, 2009).
The source made the active and inactive calls. The rule behind the calls is not given here.

These compounds were tested against Influenza A virus M2 proton channel (A/TW/4845/1999 H1N1) (assay: NMR binding screen, influenza A virus M2 proton channel, Kd (AID 1549)). Settings: M2 protein.

SMILES | Kd
CN(C)N1C(=O)C2CCCCC2C1=O (centres undefined) | > 4 mM (inactive)
Cn1cnc2c1c(=O)[nH]c(=O)n2C | > 4 mM (inactive)
O=C(O)Cn1nc(-c2ccccc2)c2ccccc2c1=O | > 4 mM (inactive)
Cc1nc(NC(=O)c2cccnc2)ccc1Br | > 4 mM (inactive)
COc1ccc(Cl)cc1NC(=O)c1ccco1 | > 4 mM (inactive)
N#Cc1sc2nc3c(c(-c4cccnc4)c2c1N)CCC3 | > 4 mM (inactive)
O=C1CCCN1c1ccc(S(=O)O)cc1 | > 4 mM (inactive)
Cn1c2c(c(=O)n(C)c1=O)CN(Cc1ccco1)CN2 | > 4 mM (inactive)
O=c1c(O)c(-c2ccc(O)cc2O)oc2cc(O)cc(O)c12 | > 4 mM (inactive)
O=C(O)CCc1c[nH]c2ccccc12 | > 4 mM (inactive)
COC(=O)Cc1cc(=O)n(-c2nc3ccccc3s2)[nH]1 | > 4 mM (inactive)
O=C(O)C1Cc2ccccc2N1 (centres undefined) | > 4 mM (inactive)
Nc1nnc(COc2cccc(C(F)(F)F)c2)s1 | > 4 mM (inactive)
CC1(C)CN=C(Nc2nc3ccccc3s2)S1 | > 4 mM (inactive)
O=C(O)c1ccc2ccccc2n1 | > 4 mM (inactive)
CSc1ccccc1C(=O)N1CCOCC1 | > 4 mM (inactive)
O=C1NC(=O)C(=Cc2ccccc2)C(=O)N1 | > 4 mM (inactive)
CC(=O)Nc1cc(C(F)(F)F)ccc1N1CCOCC1 | > 4 mM (inactive)
O=C(Nc1ccc(F)cc1F)c1ccco1 | > 4 mM (inactive)
O=C1CCC([N+](=O)[O-])C(c2ccccc2F)N1 (centres undefined) | > 4 mM (inactive)
Oc1ccc2c(c1)OCO2 | > 4 mM (inactive)
NC1CS(=O)(=O)CC1O (centres undefined) | > 4 mM (inactive)
O=C1CC(NCc2ccco2)C(=O)NN1 (centres undefined) | > 4 mM (inactive)

SMILES | Kd
Nc1ccc(NS(=O)(=O)c2ccc(N)cc2)cc1 | > 4 mM (inactive)
CC(C)=NNC(=O)c1ccccc1 | > 4 mM (inactive)
O=C(O)CCC(=O)c1cccc2ccccc12 | > 4 mM (inactive)
COc1ccc(C(N)=O)cc1N | > 4 mM (inactive)
CC(=O)c1ccc(N2C(=O)C(C(C)C)NC2=S)cc1 (centres undefined) | > 4 mM (inactive)
Cc1cc(C(=O)NN2CCOCC2)c(C)o1 | > 4 mM (inactive)
CCOC(=O)c1cnn2ccccc12 | > 4 mM (inactive)
Cc1cc(C)cc(C(=O)n2cnnc2N)c1 | > 4 mM (inactive)
CCP(=O)(CC)c1cccc(C)c1 | > 4 mM (inactive)
CC(=O)c1cc(C)ccc1OC(=O)c1cccnc1 | > 4 mM (inactive)
O=c1[nH]cnc2nc[nH]c12 | > 4 mM (inactive)
Nc1nc(SCC(=O)c2ccc([N+](=O)[O-])cc2)n[nH]1 | > 4 mM (inactive)
O=C(CSc1ncn[nH]1)c1ccccc1 | > 4 mM (inactive)
COCc1cc(=O)oc2cc(O)c(Cl)cc12 | > 4 mM (inactive)
Nc1ccc2c(c1)COc1ccccc1O2 | > 4 mM (inactive)
CCn1nccc1C(=O)Nc1ccc(Cl)cc1Cl | > 4 mM (inactive)
Cc1nn2c(=O)c(NC(=O)c3ccccc3)cnc2s1 | > 4 mM (inactive)
Nc1ccccc1C(=O)N1CCOCC1 | > 4 mM (inactive)
c1cc(C(N2CCOCC2)N2CCOCC2)ccn1 | > 4 mM (inactive)
Cc1cc(NC(=O)c2c(F)c(F)c(F)c(F)c2F)no1 | > 4 mM (inactive)
O=C(Oc1ccc2c(c1)CCC2)N1CCOCC1 | > 4 mM (inactive)
COc1ccc2c(=O)c(CC(=O)O)coc2c1 | > 4 mM (inactive)
COc1ccc2c(c1)CCCN2C(N)=O | > 4 mM (inactive)

SMILES | Kd
Cn1c(=O)c2c(ncn2C)n(C)c1=O | > 4 mM (inactive)
OCc1ccccc1N1CCOCC1 | > 4 mM (inactive)
Cc1ccccc1NC(=O)c1ccccc1 | > 4 mM (inactive)
Cc1sc2nc[nH]c(=S)c2c1C | > 4 mM (inactive)
O=C(O)c1csc(-c2cccnc2)n1 | > 4 mM (inactive)
NCc1csc(-c2ccccc2)n1 | > 4 mM (inactive)
COc1ccc(-c2oc3c(CC=C(C)C)c(O[C@@H]4O[C@H](CO)[C@@H](O)[C@H](O)[C@H]4O)cc(O)c3c(=O)c2O[C@@H]2O[C@@H](C)[C@H](O)[C@@H](O)[C@H]2O)cc1 | > 4 mM (inactive)
O=C(Nc1cnc2ccccn2c1=O)c1ccc(F)cc1 | > 4 mM (inactive)
CCSc1nnc(-c2ccccc2N)c(=O)[nH]1 | > 4 mM (inactive)
CNC(=O)c1cc(C)c(-c2ccccc2)s1 | > 4 mM (inactive)
COC(=O)c1c(OC)cc2c(c1C)Oc1c(Cl)c(O)c(Cl)c(C)c1C(=O)O2 | > 4 mM (inactive)
COCCOc1nc2ccccc2nc1C | > 4 mM (inactive)
O=C1C=CC(=O)c2c(O)cccc21 | > 4 mM (inactive)
CC(=O)c1c(C)nc(C)nc1NC(=O)C(C)C | > 4 mM (inactive)
CCCCCC1C(=O)CCC1CC(=O)O (centres undefined) | > 4 mM (inactive)
COc1cc(C(=O)NCC2CCCO2)cc(OC)c1OC (centres undefined) | > 4 mM (inactive)
C[C@@H]1CC[C@@]23CCC4(C)[C@@](C=CC5[C@@]6(C)CC[C@H](O)C(C)(C)C6CC[C@]54C)(OC2=O)C3[C@H]1C (some centres undefined) | > 4 mM (inactive)
CS(=O)(=O)N1CCC(C(=O)NC2CCCC2)CC1 | > 4 mM (inactive)
C[C@@H]1C(=O)O[C@H]2[C@H]1CC[C@@]1(C)C=CC(=O)[C@@]3(C)O[C@@]213 | > 4 mM (inactive)
CCCCn1c(=O)cc(O)c2ccccc21 | > 4 mM (inactive)
N#C/C(=C\c1ccc[nH]1)S(=O)(=O)c1ccccc1 | > 4 mM (inactive)
CC(=O)Nc1sccc1C(N)=O | > 4 mM (inactive)
NC(=O)c1sc2ccccc2c1Cl | > 4 mM (inactive)

SMILES | Kd
O=C(CSC1=NCCS1)N1CCc2ccccc21 | > 4 mM (inactive)
Cc1cc(S(=O)(=O)N2CCOCC2)ccc1F | > 4 mM (inactive)
Fc1cc2nccnc2cc1N1CCSCC1 | > 4 mM (inactive)
O=C(O)c1ccc(N2CCCCC2)cc1 | > 4 mM (inactive)
OCC1CCCCCN1 (centres undefined) | > 4 mM (inactive)
NC1CSCC1O (centres undefined) | > 4 mM (inactive)
O=c1/c(=C/c2cccs2)sc2ncnn12 | > 4 mM (inactive)
Fc1cccc(Cl)c1CN1CCCNCC1 | > 4 mM (inactive)
CC(=O)c1ccc(NC(=O)c2ocnc2C)cc1 | > 4 mM (inactive)
O=C(Nc1nncs1)c1c(F)cccc1F | > 4 mM (inactive)
COC(=O)c1[nH]c2ccccc2c1C(=O)OC | > 4 mM (inactive)
O=C(O)c1cc2ccccc2s1 | > 4 mM (inactive)
Nc1cc(F)cc(F)c1 | > 4 mM (inactive)
O=C(O)C1CC(=O)N(C2Cc3ccccc3C2)C1 (centres undefined) | > 4 mM (inactive)
Cn1cccc1C=C1C(=O)NC(=S)NC1=O | > 4 mM (inactive)
COc1c2c(c(CC=C(C)C)c3oc(=O)c(-c4ccc(O)cc4)c(O)c13)OC(C)(C)C=C2 | > 4 mM (inactive)
O=C(/C=C/c1ccccc1)c1ccc(O)cc1 | > 4 mM (inactive)
NC(=O)c1ccc(N2C(=O)C=CC2=O)cc1Cl | > 4 mM (inactive)
N#Cc1c[nH]n2c(=O)cc(Cc3ccccc3)nc12 | > 4 mM (inactive)
CC(=O)OC[C@@]1(O)C[C@@]23CCC4c5ccoc5CC[C@]4(C)C2CC[C@@H]1C3 (some centres undefined) | > 4 mM (inactive)
